Test results published in patent publication US11369572B2, “Fas (Apo-1,CD95) targeted platforms for intracellular drug delivery” (Queen Mary & Westfield College, priority 2009, dated 2022).

Tested on: IGROV1-luciferase cells
Assay: Peritoneal ovarian cancer xenograft, bioluminescence imaging
Conditions: by day 48; n=5
Procedure: 5×10^6 IGROV1-luciferase cells were inoculated IP into female Balb C nu/nu mice on day 1. Paclitaxel (20 mg/kg) and PLGA microspheres were administered IP once per week (days 7, 14, 21 and 28). For bioluminescence imaging, mice were injected IP with 125 mg/kg D-luciferin (Calliper Life Sciences, UK) and then anesthetized (2% isofluorane by inhalation). Five minutes later, whilst still under anaesthetic, they were placed in a light-tight chamber on a warmed stage (37° C.) and light emission from a defined region of interest on a ventral surface was imaged on a Xenogen IVIS Imaging System 100 system (Alameda, Calif., USA). Data were analyzed using Living Image software (also Xenogen, Alameda, Calif., USA) and are presented as relative radiance (calculated from mean Radiance photons/s/cm2/sr).”
Standard error of mean (SEM) was used to assess consistency between each experimental group. One way ANOVA with Bonferroni post test were used to evaluate differences between groups. Two tailed t test was used to compare two groups.

In the case of `CC(=O)O[C@H]1C(=O)[C@@]2(C)[C@H]([C@H](OC(=O)c3ccccc3)[C@]3(O)C[C@H](OC(=O)[C@H](O)[C@@H](NC(=O)c4ccccc4)c4ccccc4)C(C)=C1C3(C)C)[C@]1(OC(C)=O)CO[C@@H]1C[C@@H]2O` [paclitaxel], the further animals sacrificed is reported as 2.
